# Data from patent publication US6770597B2, “Benzohydrazide derivatives as herbicides and desiccant compositions containing them” (Ishihara Sangyo Kaisha, Ltd., priority 2002, dated 2004).
# How the values were obtained:
# Format in all cases: in vivo
# [1] = tested on: field corn (Zea mays L., var. Dekalb 535, CORN); assay: Greenhouse herbicide screen, pre-emerge application, crop damage rating; details: PRE emergent, 14 days after application, rating scale 0-100
# Procedure, shortened: (§1)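 Rating: 0–100 scale, 14 DAA; 100 = complete plant death. Spray: acetone, 187 l/ha, 15–1000 g ai/ha, track sprayer. Timing: pre-emerge 1 d after sowing; post-emerge at 2–3 leaves.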
# [2] = tested on: upland rice (Oryza sp., var.Cocodrie, RICE); assay: as above; details: PRE emergent, 14 days after application, rating scale 0-100
# Procedure, shortened: as §1
# [3] = tested on: field corn (Zea mays L., var. Dekalb 535, CORN); assay: Greenhouse herbicide screen, post-emerge application, crop damage rating; details: POST emergent, 14 days after application, scale 0-100
# Procedure, shortened: as §1
# [4] = tested on: upland rice (Oryza sp., var.Cocodrie, RICE); assay: as above; details: POST emergent, 14 days after application, scale 0-100
# Procedure, shortened: as §1
# [5] = tested on: ivyleaf morningglory (Ipomoea hederacea, IPOHE); assay: Greenhouse herbicide screen, post-emerge application, phytotoxicity rating; details: POST emergent, 14 days after application, scale 0-100
# Procedure, shortened: as §1
# [6] = tested on: barnyardgrass (Echinochloa crus-galli, ECHCG); assay: as above; details: POST emergent, 14 days after application, scale 0-100
# Procedure, shortened: as §1
# [7] = tested on: green foxtail (Setaria viridis, SETVI); assay: as above; details: POST emergent, 14 days after application, scale 0-100
# Procedure, shortened: as §1
# [8] = tested on: large crabgrass (Digitaria sanguinalis, DIGSA); assay: as above; details: POST emergent, 14 days after application, scale 0-100
# Procedure, shortened: as §1
# [9] = tested on: johnsongrass (Sorghum halepense, SORHA); assay: as above; details: POST emergent, 14 days after application, scale 0-100
# Procedure, shortened: as §1
# [10] = tested on: lambsquarters (Chenopodium album, CHEAL); assay: as above; details: POST emergent, 14 days after application, scale 0-100
# Procedure, shortened: as §1
# [11] = tested on: velvetleaf (Abutilon theophrasti, ABUTH); assay: as above; details: POST emergent, 14 days after application, scale 0-100
# Procedure, shortened: as §1
# [12] = tested on: sicklepod (Cassia obtusifolia, CASOB); assay: as above; details: POST emergent, 14 days after application, scale 0-100
# Procedure, shortened: as §1
# [13] = tested on: redroot pigweed (Amaranthus retrofiexus, AMARE); assay: as above; details: POST emergent, 14 days after application
# Procedure, shortened: as §1
# [14] = tested on: cocklebur (Xanthium strumarium, XANST); assay: as above; details: POST emergent, 14 days after application, scale 0-100
# Procedure, shortened: as §1
# [15] = tested on: common ragweed (Ambrosia artemisiifolia L., AMBEL); assay: as above; details: POST emergent, 14 days after application, scale 0-100
# Procedure, shortened: as §1
# [16] = tested on: ivyleaf morningglory (Ipomoea hederacea, IPOHE); assay: Greenhouse herbicide screen, pre-emerge application, phytotoxicity rating; details: PRE emergent, 14 days after application, rating scale 0-100
# Procedure, shortened: as §1
# [17] = tested on: barnyardgrass (Echinochloa crus-galli, ECHCG); assay: as above; details: PRE emergent, 14 days after application, rating scale 0-100
# Procedure, shortened: as §1
# [18] = tested on: green foxtail (Setaria viridis, SETVI); assay: as above; details: PRE emergent, 14 days after application, rating scale 0-100
# Procedure, shortened: as §1
# [19] = tested on: large crabgrass (Digitaria sanguinalis, DIGSA); assay: as above; details: PRE emergent, 14 days after application, rating scale 0-100
# Procedure, shortened: as §1
# [20] = tested on: johnsongrass (Sorghum halepense, SORHA); assay: as above; details: PRE emergent, 14 days after application, rating scale 0-100
# Procedure, shortened: as §1
# [21] = tested on: lambsquarters (Chenopodium album, CHEAL); assay: as above; details: PRE emergent, 14 days after application, rating scale 0-100
# Procedure, shortened: as §1
# [22] = tested on: velvetleaf (Abutilon theophrasti, ABUTH); assay: as above; details: PRE emergent, 14 days after application, rating scale 0-100
# Procedure, shortened: as §1
# [23] = tested on: sicklepod (Cassia obtusifolia, CASOB); assay: as above; details: PRE emergent, 14 days after application, rating scale 0-100
# Procedure, shortened: as §1
# [24] = tested on: redroot pigweed (Amaranthus retrofiexus, AMARE); assay: as above; details: PRE emergent, 14 days after application, rating scale 0-100
# Procedure, shortened: as §1
# [25] = tested on: cocklebur (Xanthium strumarium, XANST); assay: as above; details: PRE emergent, 14 days after application, rating scale 0-100
# Procedure, shortened: as §1
# [26] = tested on: common ragweed (Ambrosia artemisiifolia L., AMBEL); assay: as above; details: PRE emergent, 14 days after application, rating scale 0-100
# Procedure, shortened: as §1
# [27] = 63 g ai/ha, scale 0-100 (0 no damage, 100 complete death)
smiles,measurement,setting,value
C#CCOC(=NN=C(C(C)(C)C)C(C)(C)C)c1cc(-n2c(=O)cc(C(F)(F)F)n(C)c2=O)c(F)cc1Cl [Compound 5-7],crop damage rating CORN,[1]; 63 g ai/ha,0
same,crop damage rating CORN,[1]; 250 g ai/ha,10
same,crop damage rating RICE,[2]; 63 g ai/ha,0
same,crop damage rating RICE,[2]; 250 g ai/ha,0
same,crop damage rating CORN,[3]; 63 g ai/ha,0
same,crop damage rating CORN,[3]; 250 g ai/ha,15
same,crop damage rating RICE,[4]; 63 g ai/ha,10
same,crop damage rating RICE,[4]; 250 g ai/ha,0
same,phytotoxicity rating IPOHE,[5]; 63 g ai/ha,60
same,phytotoxicity rating IPOHE,[5]; 250 g ai/ha,70
same,phytotoxicity rating ECHCO,[6]; 63 g ai/ha,35
same,phytotoxicity rating ECHCO,[6]; 250 g ai/ha,55
same,phytotoxicity rating SETVI,[7]; 63 g ai/ha,50
same,phytotoxicity rating SETVI,[7]; 250 g ai/ha,55
same,phytotoxicity rating DIGSA,[8]; 63 g ai/ha,0
same,phytotoxicity rating DIGSA,[8]; 250 g ai/ha,50
same,phytotoxicity rating SORHA,[9]; 63 g ai/ha,0
same,phytotoxicity rating SORHA,[9]; 250 g ai/ha,15
same,phytotoxicity rating CHEAL,[10]; 63 g ai/ha,70
same,phytotoxicity rating CHEAL,[10]; 250 g ai/ha,85
same,phytotoxicity rating ABUTH,[11]; 63 g ai/ha,30
same,phytotoxicity rating ABUTH,[11]; 250 g ai/ha,70
same,phytotoxicity rating CASOB,[12]; 63 g ai/ha,50
same,phytotoxicity rating CASOB,[12]; 250 g ai/ha,50
same,phytotoxicity rating AMARE,[13]; [27],70
same,phytotoxicity rating AMARE,"[13]; 250 g ai/ha, scale 0-100",99
same,phytotoxicity rating XANST,[14]; 63 g ai/ha,0
same,phytotoxicity rating XANST,[14]; 250 g ai/ha,55
same,phytotoxicity rating AMBEL,[15]; 63 g ai/ha,50
same,phytotoxicity rating AMBEL,[15]; 250 g ai/ha,55
same,phytotoxicity rating IPOHE,[16]; 63 g ai/ha,0
same,phytotoxicity rating IPOHE,[16]; 250 g ai/ha,30
same,phytotoxicity rating ECHCG,[17]; 63 g ai/ha,0
same,phytotoxicity rating ECHCG,[17]; 250 g ai/ha,0
same,phytotoxicity rating SETVI,[18]; 63 g ai/ha,30
same,phytotoxicity rating SETVI,[18]; 250 g ai/ha,80
same,phytotoxicity rating DIGSA,[19]; 63 g ai/ha,0
same,phytotoxicity rating DIGSA,[19]; 250 g ai/ha,50
same,phytotoxicity rating SORHA,[20]; 63 g ai/ha,15
same,phytotoxicity rating SORHA,[20]; 250 g ai/ha,20
same,phytotoxicity rating CHEAL,[21]; 63 g ai/ha,100
same,phytotoxicity rating CHEAL,[21]; 250 g ai/ha,100
same,phytotoxicity rating ABUTH,[22]; 63 g ai/ha,50
same,phytotoxicity rating ABUTH,[22]; 250 g ai/ha,99
same,phytotoxicity rating CASOB,[23]; 63 g ai/ha,0
same,phytotoxicity rating CASOB,[23]; 250 g ai/ha,50
same,phytotoxicity rating AMARE,[24]; 63 g ai/ha,60
same,phytotoxicity rating AMARE,[24]; 250 g ai/ha,100
same,phytotoxicity rating XANST,[25]; 63 g ai/ha,0
same,phytotoxicity rating XANST,[25]; 250 g ai/ha,0
same,phytotoxicity rating AMBEL,[26]; 63 g ai/ha,0
same,phytotoxicity rating AMBEL,[26]; 250 g ai/ha,50
Cn1c(C(F)(F)F)cc(=O)n(-c2cc(C(=O)NN=C(c3ccccc3)c3ccccc3)c(Cl)cc2F)c1=O [Compound 6-15],crop damage rating CORN,[1]; 63 g ai/ha,0
same,crop damage rating CORN,[1]; 250 g ai/ha,0
same,crop damage rating RICE,[2]; 63 g ai/ha,0
same,crop damage rating RICE,[2]; 250 g ai/ha,0
same,crop damage rating CORN,[3]; 63 g ai/ha,20
same,crop damage rating CORN,[3]; 250 g ai/ha,25
same,crop damage rating RICE,[4]; 63 g ai/ha,0
same,crop damage rating RICE,[4]; 250 g ai/ha,0
same,phytotoxicity rating IPOHE,[5]; 63 g ai/ha,75
same,phytotoxicity rating IPOHE,[5]; 250 g ai/ha,100
same,phytotoxicity rating ECHCO,[6]; 63 g ai/ha,50
same,phytotoxicity rating ECHCO,[6]; 250 g ai/ha,65
same,phytotoxicity rating SETVI,[7]; 63 g ai/ha,55
same,phytotoxicity rating SETVI,[7]; 250 g ai/ha,60
same,phytotoxicity rating DIGSA,[8]; 63 g ai/ha,20
same,phytotoxicity rating DIGSA,[8]; 250 g ai/ha,50
same,phytotoxicity rating SORHA,[9]; 63 g ai/ha,0
same,phytotoxicity rating SORHA,[9]; 250 g ai/ha,15
same,phytotoxicity rating CHEAL,[10]; 63 g ai/ha,90
same,phytotoxicity rating CHEAL,[10]; 250 g ai/ha,90
same,phytotoxicity rating ABUTH,[11]; 63 g ai/ha,80
same,phytotoxicity rating ABUTH,[11]; 250 g ai/ha,98
same,phytotoxicity rating CASOB,[12]; 63 g ai/ha,70
same,phytotoxicity rating CASOB,[12]; 250 g ai/ha,75
same,phytotoxicity rating AMARE,[13]; [27],90
same,phytotoxicity rating AMARE,"[13]; 250 g ai/ha, scale 0-100",90
same,phytotoxicity rating XANST,[14]; 63 g ai/ha,70
same,phytotoxicity rating XANST,[14]; 250 g ai/ha,75
same,phytotoxicity rating AMBEL,[15]; 63 g ai/ha,80
same,phytotoxicity rating AMBEL,[15]; 250 g ai/ha,80
same,phytotoxicity rating IPOHE,[16]; 63 g ai/ha,15
same,phytotoxicity rating IPOHE,[16]; 250 g ai/ha,95
same,phytotoxicity rating ECHCG,[17]; 63 g ai/ha,0
same,phytotoxicity rating ECHCG,[17]; 250 g ai/ha,35
same,phytotoxicity rating SETVI,[18]; 63 g ai/ha,75
same,phytotoxicity rating SETVI,[18]; 250 g ai/ha,98
same,phytotoxicity rating DIGSA,[19]; 63 g ai/ha,85
same,phytotoxicity rating DIGSA,[19]; 250 g ai/ha,99
same,phytotoxicity rating SORHA,[20]; 63 g ai/ha,40
same,phytotoxicity rating SORHA,[20]; 250 g ai/ha,95
same,phytotoxicity rating CHEAL,[21]; 63 g ai/ha,100
same,phytotoxicity rating CHEAL,[21]; 250 g ai/ha,100
same,phytotoxicity rating ABUTH,[22]; 63 g ai/ha,100
same,phytotoxicity rating ABUTH,[22]; 250 g ai/ha,100
same,phytotoxicity rating CASOB,[23]; 63 g ai/ha,65
same,phytotoxicity rating CASOB,[23]; 250 g ai/ha,99
same,phytotoxicity rating AMARE,[24]; 63 g ai/ha,100
same,phytotoxicity rating AMARE,[24]; 250 g ai/ha,100
same,phytotoxicity rating XANST,[25]; 63 g ai/ha,30
same,phytotoxicity rating XANST,[25]; 250 g ai/ha,60
same,phytotoxicity rating AMBEL,[26]; 63 g ai/ha,70
same,phytotoxicity rating AMBEL,[26]; 250 g ai/ha,95
